Data set [1] can be described thus: Log D by shake flask method (octanol / PBS pH 7.4, HPLC). Format: physicochemical. The note with it: octanol / PBS pH 7.4, shake flask; read-out: logD. The method, then:
In order to classify the inventive compounds according to their lipophilicity, Log D values (distribution coefficient) were determined by means of the well-established shake flask method, measuring the partition of a compound between an octanol and phosphate-buffered saline (PBS, pH 7.4) by HPLC.
Compounds with a moderate lipophilicity (Log D values from 0 to 3) are usually advantaged for oral absorption, being in balance between solubility and permeability. However, sophisticated formulation of a compound might improve oral bioavailability for highly lipophilic compounds.

Data set [2] concerns the target T1, recombinant human transglutaminase 2 (Homo sapiens, UniProt P21980).
T1 sequence (P21980 1-687): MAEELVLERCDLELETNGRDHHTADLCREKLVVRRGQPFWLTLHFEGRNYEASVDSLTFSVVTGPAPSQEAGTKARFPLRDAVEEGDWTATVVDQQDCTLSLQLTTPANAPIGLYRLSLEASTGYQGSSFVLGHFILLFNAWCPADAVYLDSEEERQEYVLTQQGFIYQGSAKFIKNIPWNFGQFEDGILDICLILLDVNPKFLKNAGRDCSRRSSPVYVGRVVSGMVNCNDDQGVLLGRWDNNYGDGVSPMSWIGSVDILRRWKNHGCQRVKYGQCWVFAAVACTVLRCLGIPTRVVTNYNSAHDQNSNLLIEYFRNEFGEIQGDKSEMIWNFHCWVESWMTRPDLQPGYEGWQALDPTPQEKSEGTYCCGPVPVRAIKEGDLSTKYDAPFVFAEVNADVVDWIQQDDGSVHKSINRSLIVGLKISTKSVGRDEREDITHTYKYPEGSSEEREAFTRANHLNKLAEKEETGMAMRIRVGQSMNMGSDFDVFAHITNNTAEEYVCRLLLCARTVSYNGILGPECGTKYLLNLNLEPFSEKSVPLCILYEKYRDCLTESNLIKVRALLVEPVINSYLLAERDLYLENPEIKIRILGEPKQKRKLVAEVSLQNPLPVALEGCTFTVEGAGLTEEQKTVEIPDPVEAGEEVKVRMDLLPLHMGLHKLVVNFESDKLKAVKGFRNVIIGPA
As to the kind of experiment: Transglutaminase assay: incorporation of dansylcadaverine into dimethylcasein (DCC-assay). As to conditions: recombinant human TG2 10 nM, dansylcadaverine/dimethylcasein; read-out: IC50 TG2. Type of data set: biochemical. The method, then:
To illustrate the advantage of branched alkyl moieties over aromatic moieties, we refer to reference compounds Ref. 2 (ZED1227, U.S. Pat. No. 9,434,763 B2) and Ref. 3 (A8, ZED1047). Inhibition data were determined using the classical fluorescent transamidation assay (dansylcadaverine incorporation into methylated casein, DCC-assay) as described [Büchold, C.; Hils, M.; Gerlach, U.; Weber, J.; Pelzer, C.; Heil, A.; Aeschlimann, D.; Pasternack, R. Features of ZED1227: The First-In-Class Tissue Transglutaminase Inhibitor Undergoing Clinical Evaluation for the Treatment of Celiac Disease. Cells 2022, 11, 1667. https://doi.org/10.3390/cells11101667]. Casein is one of the best known high molecular weight (24 kDa) protein substrates for transglutaminases. Please note, the IC50 value of Ref. 3 (A8) published in U.S. Pat. No. 9,434,763 B2 cannot be compared to the present data, relying on a fluorogenic isopeptidase assay.
To this extent, inhibition data were determined using the classical fluorescent transamidation assay (dansylcadaverine incorporation into methylated casein, DCC-assay) as described in Büchold et al. [Büchold, C.; Hils, M.; Gerlach, U.; Weber, J.; Pelzer, C.; Heil, A.; Aeschlimann, D.; Pasternack, R. Features of ZED1227: The First-In-Class Tissue Transglutaminase Inhibitor Undergoing Clinical Evaluation for the Treatment of Celiac Disease. Cells 2022, 11, 1667. https://doi.org/10.3390/cells11101667]. Casein is one of the best known high molecular weight (24 kDa) protein substrates for transglutaminases. Inhibition data of the inventive compounds was compared with inhibition of compounds disclosed in U.S. Pat. No. 9,434,763 B2, particularly, compound A8, which is denoted herein as Reference 3. It is noteworthy that the IC50 values of compounds A8 published in U.S. Pat. No. 9,434,763 B2 and E16 from U.S. Pat. No. 11,072,634 B2 cannot be compared to the present data, relying on a fluorogenic isopeptidase assay.
For the determination of potency of inhibitors against tissue transglutaminase, the incorporation of dansylcadaverine into dimethylcasein (Zedira product T036, Lorand et al., Anal Biochem, 1971, 44:221-31) was measured using recombinant human transglutaminase 2 (Zedira Product T022).
The tissue transglutaminase is diluted in buffer (50 mM Tris-HCl, 7.5 mM CaCl2, 150 mM NaCl, pH=7.4). The final concentration of TG2 in the assay is 10 nM.
A 10 mM inhibitor stock solution is prepared in DMSO, and from this a serial 1:2-fold dilution series is prepared also in DMSO. Each of the initial dilutions is subsequently diluted 1:50-fold with buffer (50 mM Tris-HCl, 7.5 mM CaCl2, 150 mM NaCl, pH=7.4) to yield the final working dilutions containing 2% (v/v) DMSO. 15 μl of inhibitor working dilution are added per well of a 96 well microtiter plate. As control, 15 μl of a 2% (v/v) DMSO solution prepared using the buffer mentioned above are added per well.
Immediately before starting the assay, 600 μl transglutaminase working solution are added to 11.4 ml assay buffer (50 mM Tris-HCl, 10 mM CaCl2, 10 mM glutathione, 2.5% glycerol, 16.7 μM dansylcadaverine, 4 μM N,N-dimethylcasein, 200 mM NaCl, pH=8.0). 285 μl of this reaction mix are added per well containing the inhibitor.
Increase in fluorescence is measured using λex=330 nm and λemG=500 nm at […] for 30 min. A slope of the increase in fluorescence between 20 and 30 min is calculated for determination of the IC50 value (inhibitor concentration at which 50% of the initial activity is blocked).
Analysis of enzymatic activity is performed by calculation of the slope of an increase in fluorescence intensity. IC50 values are calculated by plotting the enzymatic activity (as percentage from control containing 2% DMSO instead of inhibitor) against the inhibitor concentration. IC50 is defined as the inhibitor concentration blocking 50% of initial enzyme activity.

Data set [3] can be described thus: Caco-2 permeability assay (CacoReady kit). Format: in vitro ADME. As to conditions: human. The method, then: Permeability coefficients (Papp values) were obtained from Caco-2 barrier studies predicting oral/intestinal bioavailability of the tested compounds. The assays were performed by using CacoReady™ ready-to-use kits from ReadyCell according to the manufacturers protocol.
For orientation: Caco-2 monolayers are a common model of the intestinal barrier.

SMILES strings stand for the structures.

`CCNC(=O)C(=O)CC[C@H](NC(=O)c1cncn1C)C(=O)Nc1cccn(CC(=O)NC23CC4CC(C2)C(F)(F)C(C4)C3)c1=O` [Compound I-12, (S)-N1-ethyl-N6-(1-(2-(4,4-difluoroadamantane-1-amino)-2-oxoethyl)-2-oxo-1,2-dihydropyridin-3-yl)-5-(1-methyl-1H-imidazole-5-carboxamido)-2-oxohexanediamide]: the log distribution coefficient (logD) in data set [1] is less than 1. In data set [2], the IC50 was in the range of 150 to 600 nM. For the same compound, the apparent permeability (Papp) in data set [3] is less than 1 ×10⁻⁶ cm/s.
The matching figures for `CCNC(=O)C(=O)CC[C@H](NC(=O)c1cncn1C)C(=O)Nc1cccn(CC(=O)NC[C@@H]2CC[C@H]3C[C@@H]2C3(C)C)c1=O` [Compound I-13, (S)-N1-(1-(2-(((1S,2R,5S)-6,6-dimethylbicyclo[3.1.1]heptan-2-yl)methylamino)-2-oxoethyl)-2-oxo-1,2-dihydropyridin-3-yl)-N6-ethyl-2-(1-methyl-1H-imidazole-5-carboxamido)-5-oxohexanediamide]: 1 to 3, 600 to 3500 nM and less than 1 ×10⁻⁶ cm/s.
The matching figures for `CCNC(=O)C(=O)CC[C@H](NC(=O)c1cncn1C)C(=O)Nc1cccn(CC(=O)NC[C@@H]2CC[C@@H]3C[C@H]2C3(C)C)c1=O` [Compound I-14, (S)-N1-(1-(2-(((1R,2R,5R)-6,6-dimethylbicyclo[3.1.1]heptan-2-yl)methylamino)-2-oxoethyl)-2-oxo-1,2-dihydropyridin-3-yl)-N6-ethyl-2-(1-methyl-1H-imidazole-5-carboxamido)-5-oxohexanediamide]: 1 to 3, 150 to 600 nM and less than 1 ×10⁻⁶ cm/s.
In the case of `CCNC(=O)C(=O)CC[C@H](NC(=O)c1cn(C)cn1)C(=O)Nc1cccn(CC(=O)NC23CC4CC(CC(CC)(C4)C2)C3)c1=O` [Compound I-15, (S)-N1-ethyl-N6-(1-(2-(3-ethyladamantane-1-amino)-2-oxoethyl)-2-oxo-1,2-dihydropyridin-3-yl)-5-(1-methyl-1H-imidazole-4-carboxamido)-2-oxohexanediamide], in data set [1], the logD was 1 to 3. The concentration for half-maximal inhibition (IC50) in data set [2] is 600 to 3500 nM. In data set [3], this compound came in with a Papp of less than 1 ×10⁻⁶ cm/s.
For `CCNC(=O)C(=O)CC[C@H](NC(=O)c1nccn1C)C(=O)Nc1cccn(CC(=O)NC23CC4CC(CC(CC)(C4)C2)C3)c1=O` [Compound I-16, (S)-N1-ethyl-N6-(1-(2-(3-ethyladamantane-1-amino)-2-oxoethyl)-2-oxo-1,2-dihydropyridin-3-yl)-5-(1-methyl-1H-imidazole-2-carboxamido)-2-oxohexanediamide], in data set [1], the logD lay in the range of 1 to 3. The IC50 in data set [2] lay in the range of 600 to 3500 nM. Further, the Papp in data set [3] is less than 1 ×10⁻⁶ cm/s.
On to `CCNC(=O)C(=O)CC[C@H](NC(=O)c1c(C)ncn1C)C(=O)Nc1cccn(CC(=O)NC23CC4CC(CC(CC)(C4)C2)C3)c1=O` [Compound I-17, (S)-2-(1,4-dimethyl-1H-imidazole-5-carboxamido)-N6-ethyl-N1-(1-(2-(3-ethyladamantane-1-amino)-2-oxoethyl)-2-oxo-1,2-dihydropyridin-3-yl)-5-oxohexanediamide], for which the pH-dependent lipophilicity (logD) in data set [1] is 1 to 3. Further, the half-maximal inhibitory concentration (IC50) in data set [2] fell in the range of 600 to 3500 nM. In data set [3], the apparent permeability (Papp) was less than 1 ×10⁻⁶ cm/s.
With `CCNC(=O)C(=O)CC[C@H](NC(=O)c1cn(CC(C)C)cn1)C(=O)Nc1cccn(CC(=O)NC23CC4CC(CC(CC)(C4)C2)C3)c1=O` [Compound I-18, (S)-N1-ethyl-5-(1-isobutyl-1H-imidazole-4-carboxamido)-N6-(1-(2-(3-ethyladamantane-1-amino)-2-oxoethyl)-2-oxo-1,2-dihydropyridin-3-yl)-2-oxohexanediamide], the logD in data set [1] is 3 to 5. In addition, the IC50 in data set [2] lay in the range of 600 to 3500 nM. Also, the Papp in data set [3] is less than 1 ×10⁻⁶ cm/s.
Consider `CCNC(=O)C(=O)CC[C@H](NC(=O)c1cn(C2CCCC2)cn1)C(=O)Nc1cccn(CC(=O)NC23CC4CC(CC(CC)(C4)C2)C3)c1=O` [Compound I-19, (S)-2-(1-cyclopentyl-1H-imidazole-4-carboxamido)-N6-ethyl-N1-(1-(2-(3-ethyladamantane-1-amino)-2-oxoethyl)-2-oxo-1,2-dihydropyridin-3-yl)-5-oxohexanediamide], for which the log distribution coefficient (logD) in data set [1] lay within 3 to 5. Besides, the concentration for half-maximal inhibition (IC50) in data set [2] fell in the range of 600 to 3500 nM. Also, the apparent permeability coefficient (Papp) in data set [3] is less than 1 ×10⁻⁶ cm/s.
With `CCNC(=O)C(=O)CC[C@H](NC(=O)c1cn(C2CCC2)cn1)C(=O)Nc1cccn(CC(=O)NC23CC4CC(CC(CC)(C4)C2)C3)c1=O` [Compound I-20, (S)-2-(1-cyclobutyl-1H-imidazole-4-carboxamido)-N6-ethyl-N1-(1-(2-(3-ethyladamantane-1-amino)-2-oxoethyl)-2-oxo-1,2-dihydropyridin-3-yl)-5-oxohexanediamide], the logD in data set [1] was 1 to 3. Moreover, the IC50 in data set [2] was in the range of 600 to 3500 nM. In data set [3], the Papp is less than 1 ×10⁻⁶ cm/s.
The matching figures for `CCNC(=O)C(=O)CC[C@H](NC(=O)c1c(C)ncn1C)C(=O)Nc1cccn(CC(=O)NC23CC4CC(C)(CC(C)(C4)C2)C3)c1=O` [Compound I-21, (S)-2-(1,4-dimethyl-1H-imidazole-5-carboxamido)-N6-ethyl-N1-(1-(2-(3,5-dimethyladamantane-1-amino)-2-oxoethyl)-2-oxo-1,2-dihydropyridin-3-yl)-5-oxohexanediamide]: 1 to 3, 600 to 3500 nM and less than 1 ×10⁻⁶ cm/s.
In the same order, the values of `CCNC(=O)C(=O)CC[C@H](NC(=O)c1cn(C)cn1)C(=O)Nc1cccn(CC(=O)NC23CC4CC(C)(CC(C)(C4)C2)C3)c1=O` [Compound I-22, (S)-N1-ethyl-N6-(1-(2-(3,5-dimethyladamantane-1-amino)-2-oxoethyl)-2-oxo-1,2-dihydropyridin-3-yl)-5-(1-methyl-1H-imidazole-4-carboxamido)-2-oxohexanediamide] are 1 to 3, 600 to 3500 nM and less than 1 ×10⁻⁶ cm/s.

As a reminder, the logD is lipophilicity at a set pH, counting ionised and neutral species. For orientation: IC50 means the concentration that inhibits the measured activity by half. The term Papp denotes a coefficient for how fast a substance crosses the barrier. Low values mean poor permeation, high ones ready permeation.

Source of the values: patent US20240270715A1, “INHIBITORS OF TRANSGLUTAMINASES” (ZEDIRA GMBH, priority 2021, published 2024).
